Results from US8426345B2, “Method of drug design” (Alchemia Limited, priority 2005, dated 2013).

Biological target: T1, Human SST5 somatostatin receptor (Homo sapiens, UniProt P35346)
T1 construct: expressed in transfected cells; host or cells: HEK-293 EBNA cells (membranes)
Experiment: Filter plate radio-ligand binding assay for SST5 receptor ([125I]SST-14 displacement)
Settings: for % SST5 radio-ligand binding displaced at conc 0.25: conc 0.25 μM; for % SST5 radio-ligand binding displaced at conc 1.0: conc 1.0 μM; for % SST5 radio-ligand binding displaced at conc 0.001: conc 0.001 μM; for % SST5 radio-ligand binding displaced at conc 0.10: conc 0.10 μM; for % SST5 radio-ligand binding displaced at conc 0.5: conc 0.5 μM; for % SST5 radio-ligand binding displaced at conc 10: conc 10 μM

[1] = compound conc 50 μM, 2P library
[2] = compound conc 250 μM, 2P library
[3] = compound conc 500 μM, 2P library

T1 sequence (P35346 whole entry): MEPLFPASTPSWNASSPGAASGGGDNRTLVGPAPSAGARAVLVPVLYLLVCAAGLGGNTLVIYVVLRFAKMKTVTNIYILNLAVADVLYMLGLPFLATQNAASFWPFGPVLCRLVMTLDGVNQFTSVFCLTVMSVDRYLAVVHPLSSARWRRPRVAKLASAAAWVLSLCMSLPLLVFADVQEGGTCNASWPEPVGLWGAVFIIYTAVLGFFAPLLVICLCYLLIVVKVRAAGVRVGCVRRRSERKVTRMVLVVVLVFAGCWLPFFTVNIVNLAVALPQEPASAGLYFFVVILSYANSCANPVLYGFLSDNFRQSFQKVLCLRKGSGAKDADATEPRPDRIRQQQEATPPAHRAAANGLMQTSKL

Row | SMILES | % SST5 radio-ligand binding displaced at conc 50 [1] | % SST5 radio-ligand binding displaced at conc 250 [2] | % SST5 radio-ligand binding displaced at conc 500 [3] | % SST5 radio-ligand binding displaced at conc 0.25 (3P library) | % SST5 radio-ligand binding displaced at conc 1.0 (3P library) | also measured
1 | COC[C@H]1O[C@@H](OCc2ccc3ccccc3c2)[C@H](NC(=O)CCN)[C@H](OC)[C@@H]1O [Compound 62] |  |  |  |  |  | % SST5 radio-ligand binding displaced at conc 50 (conc 50 μM, 3P library): − (% SST5 radio-ligand binding displaced at cone (μM) −<40%); % SST5 radio-ligand binding displaced at conc 250 (conc 250 μM, 3P library): ++ (% SST5 radio-ligand binding displaced at conc (μM) >60%); % SST5 radio-ligand binding displaced at conc 500 (conc 500 μM, 3P library): ++ (% SST5 radio-ligand binding displaced at conc (μM) >60%)
2 | COC[C@H]1O[C@@H](SC)[C@H](NC(=O)CCN)[C@@H](OCc2ccc3ccccc3c2)[C@@H]1O [Compound 18] | − (% SST5 radio-ligand binding displaced at cone (μM) −<40%) | − (% SST5 radio-ligand binding displaced at cone (μM) −<40%) | − (% SST5 radio-ligand binding displaced at cone (μM) −<40%) |  |  | 
3 | COC[C@H]1O[C@H](OCc2ccc3ccccc3c2)[C@H](NC(=O)CCN(C)C)[C@@H](OCc2ccc3ccccc3c2)[C@@H]1O [Compound 106] |  |  |  | − (% SST5 radio-ligand binding displaced at cone (μM) −<40%) | − (% SST5 radio-ligand binding displaced at cone (μM) −<40%) | 
4 | COCC1OC(OCc2ccc3ccccc3c2)C(NC(=O)CCN)C(OCc2ccccc2)C1O (mixture of isomers) [Compound 64] |  |  |  |  | ++ (% SST5 radio-ligand binding displaced at conc (μM) >60%) | % SST5 radio-ligand binding displaced at conc 0.001 (3P library): − (% SST5 radio-ligand binding displaced at cone (μM) −<40%); % SST5 radio-ligand binding displaced at conc 0.10 (3P library): + (% SST5 radio-ligand binding displaced at cone (μM) 60>+>40%); % SST5 radio-ligand binding displaced at conc 0.5 (3P library): ++ (% SST5 radio-ligand binding displaced at conc (μM) >60%); % SST5 radio-ligand binding displaced at conc 10 (3P library): ++ (% SST5 radio-ligand binding displaced at conc (μM) >60%)
5 | COC[C@H]1O[C@H](OCc2ccc3ccccc3c2)[C@H](NC(=O)CCN)[C@@H](OCc2nc3ccccc3s2)[C@@H]1O [Compound 111] |  |  |  | − (% SST5 radio-ligand binding displaced at cone (μM) −<40%) | − (% SST5 radio-ligand binding displaced at cone (μM) −<40%) | 
6 | COC[C@H]1O[C@@H](OCc2ccc(Cl)cc2)[C@H](NC(=O)CN)[C@@H](OC)[C@@H]1O [Compound 13] | − (% SST5 radio-ligand binding displaced at cone (μM) −<40%) | − (% SST5 radio-ligand binding displaced at cone (μM) −<40%) | − (% SST5 radio-ligand binding displaced at cone (μM) −<40%) |  |  | 
7 | COC[C@H]1O[C@@H](OCc2ccc(Cl)cc2)[C@H](NC(=O)CCN)[C@@H](OC)[C@@H]1O [Compound 20] | − (% SST5 radio-ligand binding displaced at cone (μM) −<40%) | − (% SST5 radio-ligand binding displaced at cone (μM) −<40%) | + (% SST5 radio-ligand binding displaced at cone (μM) 60>+>40%) |  |  | 
8 | COC[C@H]1OC(OCc2ccc(Cl)cc2)[C@H](NC(=O)CN)[C@@H](OCc2ccccc2)[C@@H]1O (single isomer, unassigned) [Compound 169] |  |  |  | − (% SST5 radio-ligand binding displaced at cone (μM) −<40%) | − (% SST5 radio-ligand binding displaced at cone (μM) −<40%) | 
9 | COC[C@H]1O[C@H](OCc2ccc3ccccc3c2)[C@H](NC(=O)CCN)[C@@H](OCc2cccc(Cl)c2)[C@@H]1O [Compound 107] |  |  |  | ++ (% SST5 radio-ligand binding displaced at conc (μM) >60%) | ++ (% SST5 radio-ligand binding displaced at conc (μM) >60%) | 
10 | COC[C@H]1O[C@H](OCc2ccc(Cl)cc2)[C@H](NC(=O)CCN)[C@H](OC)[C@@H]1O [Compound 38] | − (% SST5 radio-ligand binding displaced at cone (μM) −<40%) | + (% SST5 radio-ligand binding displaced at cone (μM) 60>+>40%) | ++ (% SST5 radio-ligand binding displaced at conc (μM) >60%) |  |  | 
11 | COC[C@H]1O[C@@H](OCc2ccc(Cl)cc2)[C@H](NC(=O)CN)[C@H](OC)[C@@H]1O [Compound 35] | − (% SST5 radio-ligand binding displaced at cone (μM) −<40%) | − (% SST5 radio-ligand binding displaced at cone (μM) −<40%) | − (% SST5 radio-ligand binding displaced at cone (μM) −<40%) |  |  | 
12 | COC1C(O)C(COCc2ccc(Cl)cc2)OC(OCc2ccc3ccccc3c2)C1NC(=O)CCN (single isomer, unassigned) [Compound 94] |  |  |  | − (% SST5 radio-ligand binding displaced at cone (μM) −<40%) | − (% SST5 radio-ligand binding displaced at cone (μM) −<40%) | 
13 | COCC1OC(OCc2ccc3ccccc3c2)C(NC(=O)CCCN)C(OCc2ccccc2)C1O (mixture of isomers) [Compound 126] |  |  |  |  | + (% SST5 radio-ligand binding displaced at cone (μM) 60>+>40%) | % SST5 radio-ligand binding displaced at conc 0.001 (3P library): − (% SST5 radio-ligand binding displaced at cone (μM) −<40%); % SST5 radio-ligand binding displaced at conc 0.10 (3P library): − (% SST5 radio-ligand binding displaced at cone (μM) −<40%); % SST5 radio-ligand binding displaced at conc 0.5 (3P library): + (% SST5 radio-ligand binding displaced at cone (μM) 60>+>40%); % SST5 radio-ligand binding displaced at conc 10 (3P library): ++ (% SST5 radio-ligand binding displaced at conc (μM) >60%)
14 | COC[C@H]1O[C@@H](OCc2ccc3ccccc3c2)[C@H](NC(=O)CCN)[C@H](OC)[C@@H]1O [Compound 40] | − (% SST5 radio-ligand binding displaced at cone (μM) −<40%) | ++ (% SST5 radio-ligand binding displaced at conc (μM) >60%) | ++ (% SST5 radio-ligand binding displaced at conc (μM) >60%) |  |  | 
15 | COCC1OC(OCc2ccc3ccccc3c2)C(NC(=O)C2CCCCC2N)C(OCc2ccc3ccccc3c2)C1O (stereo not shown) [Compound 104] |  |  |  | − (% SST5 radio-ligand binding displaced at cone (μM) −<40%) | − (% SST5 radio-ligand binding displaced at cone (μM) −<40%) | 
16 | NCCC(=O)NC1C(OCc2ccc3ccccc3c2)OC(COCc2ccc(Cl)cc2)C(O)C1OCc1ccc(Cl)cc1 (mixture of isomers) [Compound 72] |  |  |  | − (% SST5 radio-ligand binding displaced at cone (μM) −<40%) | ++ (% SST5 radio-ligand binding displaced at conc (μM) >60%) | 
17 | COC[C@H]1O[C@@H](OCc2ccc3ccccc3c2)[C@H](NC(=O)CN)[C@H](OC)[C@@H]1O [Compound 36] | − (% SST5 radio-ligand binding displaced at cone (μM) −<40%) | − (% SST5 radio-ligand binding displaced at cone (μM) −<40%) | + (% SST5 radio-ligand binding displaced at cone (μM) 60>+>40%) |  |  | 
18 | COCC1OC(OCc2ccc(Cl)cc2)C(NC(=O)CN)C(OCc2ccc3ccccc3c2)C1O (mixture of isomers) [Compound 174] |  |  |  | − (% SST5 radio-ligand binding displaced at cone (μM) −<40%) | − (% SST5 radio-ligand binding displaced at cone (μM) −<40%) | 
19 | COC[C@H]1O[C@H](OCc2ccc3ccccc3c2)[C@H](NC(=O)CCCN)[C@@H](OCc2cccc(Cl)c2Cl)[C@@H]1O [Compound 154] |  |  |  | ++ (% SST5 radio-ligand binding displaced at conc (μM) >60%) | ++ (% SST5 radio-ligand binding displaced at conc (μM) >60%) | 
20 | COCC1OC(OCc2ccc3ccccc3c2)C(NC(=O)CCCN)C(OCc2ccc(-c3ccccc3)cc2)C1O (mixture of isomers) [Compound 128] |  |  |  | − (% SST5 radio-ligand binding displaced at cone (μM) −<40%) | + (% SST5 radio-ligand binding displaced at cone (μM) 60>+>40%) | % SST5 radio-ligand binding displaced at conc 0.001 (3P library): − (% SST5 radio-ligand binding displaced at cone (μM) −<40%); % SST5 radio-ligand binding displaced at conc 0.10 (3P library): − (% SST5 radio-ligand binding displaced at cone (μM) −<40%); % SST5 radio-ligand binding displaced at conc 0.5 (3P library): ++ (% SST5 radio-ligand binding displaced at conc (μM) >60%); % SST5 radio-ligand binding displaced at conc 10 (3P library): ++ (% SST5 radio-ligand binding displaced at conc (μM) >60%)
21 | COCC1OC(OCc2ccc3ccccc3c2)C(NC(=O)CCCN)C(OCc2ccc3ccccc3c2)C1O (mixture of isomers) [Compound 132] |  |  |  |  |  | % SST5 radio-ligand binding displaced at conc 10 (3P library): ++ (% SST5 radio-ligand binding displaced at conc (μM) >60%)
22 | COC[C@H]1O[C@@H](OCc2ccc3ccccc3c2)[C@H](NC(=O)CCN)[C@@H](OC)[C@@H]1O [Compound 61] |  |  |  |  |  | % SST5 radio-ligand binding displaced at conc 50 (conc 50 μM, 3P library): − (% SST5 radio-ligand binding displaced at cone (μM) −<40%); % SST5 radio-ligand binding displaced at conc 250 (conc 250 μM, 3P library): + (% SST5 radio-ligand binding displaced at cone (μM) 60>+>40%); % SST5 radio-ligand binding displaced at conc 500 (conc 500 μM, 3P library): ++ (% SST5 radio-ligand binding displaced at conc (μM) >60%)
23 | COC1C(O)C(COCc2ccc(Cl)cc2)OC(SC)C1NC(=O)CN (stereo not shown) [Compound 29] | − (% SST5 radio-ligand binding displaced at cone (μM) −<40%) | − (% SST5 radio-ligand binding displaced at cone (μM) −<40%) | − (% SST5 radio-ligand binding displaced at cone (μM) −<40%) |  |  | 
24 | COC[C@H]1O[C@H](OCc2ccc3ccccc3c2)[C@H](NC(=O)CCN)[C@@H](OCc2ccc3ccccc3c2)[C@@H]1O [Compound 98] |  |  |  | + (% SST5 radio-ligand binding displaced at cone (μM) 60>+>40%) | ++ (% SST5 radio-ligand binding displaced at conc (μM) >60%) | 
25 | CO[C@H]1[C@H](O)[C@@H](COCc2ccc(Cl)cc2)O[C@@H](SC)[C@@H]1NC(=O)CCCN [Compound 22] | − (% SST5 radio-ligand binding displaced at cone (μM) −<40%) | − (% SST5 radio-ligand binding displaced at cone (μM) −<40%) | − (% SST5 radio-ligand binding displaced at cone (μM) −<40%) |  |  | 
